Values of other authors as cited in paper PMC9851200, “Multiparameter phenotypic screening for endogenous TFEB and TFE3 translocation identifies novel chemical series modulating lysosome function” (Autophagy, 2022).

Legend:
Design in all cases: method as in original PKIS2 published data
[1] = target: T1, kinases (KINOMEscan panel) (Homo sapiens, UniProt P57078); settings: RIPK4; Published KINOMEscan; ref original PKIS2 published data; cited from earlier work
T1 sequence (P57078 1-832): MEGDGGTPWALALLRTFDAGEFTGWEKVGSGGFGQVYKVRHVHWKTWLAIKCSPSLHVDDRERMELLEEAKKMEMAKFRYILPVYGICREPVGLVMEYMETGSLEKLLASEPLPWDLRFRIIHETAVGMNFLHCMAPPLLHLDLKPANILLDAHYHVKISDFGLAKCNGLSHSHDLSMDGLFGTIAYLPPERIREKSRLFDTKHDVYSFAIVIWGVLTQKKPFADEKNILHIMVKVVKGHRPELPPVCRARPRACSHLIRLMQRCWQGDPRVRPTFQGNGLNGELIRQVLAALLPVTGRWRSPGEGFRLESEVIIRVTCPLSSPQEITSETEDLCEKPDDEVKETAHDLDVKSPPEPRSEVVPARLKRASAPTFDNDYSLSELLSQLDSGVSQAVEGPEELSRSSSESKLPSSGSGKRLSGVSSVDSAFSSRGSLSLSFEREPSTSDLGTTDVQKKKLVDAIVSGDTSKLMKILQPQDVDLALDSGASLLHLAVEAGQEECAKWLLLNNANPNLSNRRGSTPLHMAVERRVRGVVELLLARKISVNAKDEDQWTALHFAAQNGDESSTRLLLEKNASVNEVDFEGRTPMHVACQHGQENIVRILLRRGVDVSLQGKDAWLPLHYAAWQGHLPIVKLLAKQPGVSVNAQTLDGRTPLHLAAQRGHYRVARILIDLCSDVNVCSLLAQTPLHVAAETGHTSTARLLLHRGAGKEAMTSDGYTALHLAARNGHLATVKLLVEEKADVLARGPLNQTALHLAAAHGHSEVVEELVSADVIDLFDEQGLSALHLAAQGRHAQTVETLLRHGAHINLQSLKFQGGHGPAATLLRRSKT

[2] = target: T2, kinases (KINOMEscan panel) (Homo sapiens, UniProt P30530); settings: AXL; Published KINOMEscan; ref original PKIS2 published data; cited from earlier work
T2 sequence (P30530 26-894): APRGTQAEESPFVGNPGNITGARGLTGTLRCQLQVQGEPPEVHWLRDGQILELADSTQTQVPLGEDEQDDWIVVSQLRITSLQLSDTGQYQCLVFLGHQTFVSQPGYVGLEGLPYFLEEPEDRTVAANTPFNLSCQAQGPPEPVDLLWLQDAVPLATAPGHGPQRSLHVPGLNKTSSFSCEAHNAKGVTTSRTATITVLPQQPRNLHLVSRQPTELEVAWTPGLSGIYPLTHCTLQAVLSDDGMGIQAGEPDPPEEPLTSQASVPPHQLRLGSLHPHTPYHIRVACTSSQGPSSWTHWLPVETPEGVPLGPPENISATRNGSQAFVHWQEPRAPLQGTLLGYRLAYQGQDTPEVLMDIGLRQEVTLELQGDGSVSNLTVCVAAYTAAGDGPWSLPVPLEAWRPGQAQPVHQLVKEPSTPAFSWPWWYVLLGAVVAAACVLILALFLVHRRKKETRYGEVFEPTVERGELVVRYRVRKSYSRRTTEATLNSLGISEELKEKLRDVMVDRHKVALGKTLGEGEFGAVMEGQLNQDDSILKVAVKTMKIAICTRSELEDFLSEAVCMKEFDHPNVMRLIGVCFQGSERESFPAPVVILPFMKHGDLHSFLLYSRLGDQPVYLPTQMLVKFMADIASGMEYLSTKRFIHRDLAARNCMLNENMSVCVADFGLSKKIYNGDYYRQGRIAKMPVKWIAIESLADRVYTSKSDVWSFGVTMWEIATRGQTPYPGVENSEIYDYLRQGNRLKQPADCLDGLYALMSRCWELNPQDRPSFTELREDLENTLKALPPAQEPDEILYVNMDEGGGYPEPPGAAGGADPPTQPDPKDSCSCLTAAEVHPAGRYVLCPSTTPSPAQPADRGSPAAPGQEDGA

[3] = target: kinases (KINOMEscan panel) (Homo sapiens, UniProt P16234); settings: PDGFRA; Published KINOMEscan; ref original PKIS2 published data; cited from earlier work
kinases (KINOMEscan panel) (Homo sapiens, UniProt P16234), sequence (P16234 24-1089): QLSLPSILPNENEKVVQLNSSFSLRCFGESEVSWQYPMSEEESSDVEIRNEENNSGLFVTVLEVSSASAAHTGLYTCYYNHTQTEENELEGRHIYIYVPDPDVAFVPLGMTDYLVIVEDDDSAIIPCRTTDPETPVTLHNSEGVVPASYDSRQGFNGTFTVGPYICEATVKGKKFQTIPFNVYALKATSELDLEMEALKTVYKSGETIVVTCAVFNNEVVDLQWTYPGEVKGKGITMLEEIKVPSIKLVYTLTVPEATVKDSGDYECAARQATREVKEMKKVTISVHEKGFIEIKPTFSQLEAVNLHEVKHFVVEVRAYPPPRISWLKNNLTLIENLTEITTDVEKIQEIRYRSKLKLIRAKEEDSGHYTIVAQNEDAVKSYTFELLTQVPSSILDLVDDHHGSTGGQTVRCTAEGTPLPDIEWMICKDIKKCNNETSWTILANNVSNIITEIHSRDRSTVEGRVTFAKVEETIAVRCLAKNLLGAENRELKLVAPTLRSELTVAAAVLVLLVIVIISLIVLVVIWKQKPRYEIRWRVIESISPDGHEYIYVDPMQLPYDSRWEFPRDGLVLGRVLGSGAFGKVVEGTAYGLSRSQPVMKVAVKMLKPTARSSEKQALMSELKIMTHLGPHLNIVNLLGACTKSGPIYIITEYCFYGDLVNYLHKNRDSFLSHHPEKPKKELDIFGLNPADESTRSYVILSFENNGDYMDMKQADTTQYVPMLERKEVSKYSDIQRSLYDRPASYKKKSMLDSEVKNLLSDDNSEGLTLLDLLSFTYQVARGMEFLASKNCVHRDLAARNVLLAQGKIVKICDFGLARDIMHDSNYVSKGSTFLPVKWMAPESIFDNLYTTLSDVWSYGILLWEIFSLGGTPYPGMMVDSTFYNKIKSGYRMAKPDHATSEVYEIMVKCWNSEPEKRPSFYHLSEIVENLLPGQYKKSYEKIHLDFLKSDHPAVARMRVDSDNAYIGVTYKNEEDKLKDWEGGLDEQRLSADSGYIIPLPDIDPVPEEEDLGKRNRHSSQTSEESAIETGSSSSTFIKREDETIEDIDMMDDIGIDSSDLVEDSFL

[4] = target: T3, kinases (KINOMEscan panel) (Homo sapiens, UniProt Q04771); settings: ACVR1; Published KINOMEscan; ref original PKIS2 published data; cited from earlier work
T3 sequence (Q04771 21-509): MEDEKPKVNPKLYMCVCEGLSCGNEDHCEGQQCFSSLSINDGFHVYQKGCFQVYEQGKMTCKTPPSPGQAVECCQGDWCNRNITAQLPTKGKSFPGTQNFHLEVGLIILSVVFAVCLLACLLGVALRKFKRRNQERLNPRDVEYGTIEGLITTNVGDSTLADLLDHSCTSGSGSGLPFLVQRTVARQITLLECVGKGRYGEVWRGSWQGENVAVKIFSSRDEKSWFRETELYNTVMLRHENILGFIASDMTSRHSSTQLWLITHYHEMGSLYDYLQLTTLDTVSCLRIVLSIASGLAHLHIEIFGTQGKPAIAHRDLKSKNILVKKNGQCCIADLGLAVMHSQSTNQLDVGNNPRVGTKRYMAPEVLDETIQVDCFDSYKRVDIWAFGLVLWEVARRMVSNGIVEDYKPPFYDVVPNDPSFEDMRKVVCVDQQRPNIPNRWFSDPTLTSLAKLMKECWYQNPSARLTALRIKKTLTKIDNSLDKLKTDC

## Cc1cccc(-c2nc(Nc3ccncc3)c3ccccc3n2)n1 [NK215]
[1]
  KINOMEscan RIPK4: 0
[2]
  KINOMEscan AXL: 7
[3]
  KINOMEscan PDGFRA: 0
[4]
  KINOMEscan ACVR1: 15
